# Several values for one entry are separate records, joined by “and”; a condition that tells them apart may be missing. Equal values may be shown once.
# Legend:
# Rattus norvegicus [1] = details: repeat dose other; oral
# Rattus norvegicus [2] = details: reproduction developmental, duration: 43 days, oral, gavage, Sprague-Dawley
# Rattus norvegicus [3] = details: oral; for NOAEL: M/F; for LOAEL: M
# Rattus norvegicus [4] = test system: Rattus norvegicus
# Rattus norvegicus [5] = details: oral
# Rattus norvegicus [6] = details: short-term
# Rattus norvegicus [7] = details: oral, gavage
# Canidae = details: chronic; duration: 6 months; oral; diet; M/F; Dog Other; Organ weight changes (adrenal and kidney)
# Rattus norvegicus [8] = details: for NOEL: Wistar; for LEL: uterotrophic, Active
# Rattus norvegicus [9] = details: duration: 2 years, oral, M/F, Wistar, Increased incidences of sperm granulomas in the epididymes of male rats
# [10] = subchronic, M/F, lesions in liver, kidney and thyroid
# [11] = short-term, duration: 20 days, M/F, rachitic bone
# [12] = subchronic, duration: 90 days, diet, M/F, reduced weight gain, food consumption increased relative liver weight
# [13] = subchronic, M, increased liver-to-body weight ratio and hepatic microsomal enzyme induction
# [14] = short-term, duration: 28 days, M, Sprague-Dawley, Clinical Observation: Spontaneous locomotion decrease, Respiratory rate decrease, Incomplete eyelid opening SalivationLacrimation Stool …
compound,measurement,setting,value
[Cl-].[Cl-].[Sr+2] [Strontium chloride],NOAEL,Rattus norvegicus [1],263 mg/kg-day
BrCBr [Dibromomethane],LOAEL,Rattus norvegicus [2]; F,500 mg/kg-day
same,NOAEL,Rattus norvegicus [2]; F,150 mg/kg-day
same,LOAEL,Rattus norvegicus [2]; M,150 mg/kg-day
same,NOAEL,Rattus norvegicus [2]; M,50 mg/kg-day
same,LOAEL,Rattus norvegicus [2]; generation: F1,500 mg/kg-day
same,NOAEL,Rattus norvegicus [2]; generation: F1,150 mg/kg-day
same,NOAEL,"Rattus norvegicus [3]; short-term, duration: 28 days, drinking water, Sprague-Dawley, Hematologic",8.6 mg/kg-day
[O]=[Sb][O][Sb](=[O])=[O] [Antimony oxide (Sb2O4)],LOAEL,"Rattus norvegicus [4]; chronic, oral, drinking water, Blood: Altered chemistries + Whole body: Increased mortality",0.44 mg/kg-day
"CC(Cl)C(Cl)Cl (stereo not given) [1,1,2-Trichloropropane]",LOAEL,Rattus norvegicus [5]; [10],150 mg/kg-day
same,NOEL,Rattus norvegicus [5]; [10],15 mg/kg-day
same,NOAEL,"Rattus norvegicus [3]; subchronic, duration: 90 days, drinking water, Sprague-Dawley, Hepatic, Other",14 mg/kg-day
"Cc1ccc(N)c(C)c1 [2,4-Dimethylaniline]",LOAEL,"Rattus norvegicus [3]; chronic, duration: 6 months, diet, Osborne-Mendel",18 mg/kg-day
[Na+].[O]=[V](=[O])[O-] [Sodium metavanadate],LOAEL,Rattus norvegicus [1],2.1 mg/kg-day
same,NOAEL,Rattus norvegicus [1],0.21 mg/kg-day
same,NOAEL,"Rattus norvegicus [4]; subchronic, duration: 3 months, oral, drinking water, Kidney: Impaired function",1.52 mg/kg-day
[Sr] [Strontium],LOAEL,Rattus norvegicus [5]; [11],380 mg/kg-day
same,NOAEL,Rattus norvegicus [5]; [11],190 mg/kg-day
same,NOAEL,"Rattus norvegicus [6]; duration: 20 days, oral, diet, F, musculoskeletal",140 mg/kg-day
same,NOAEL,"Rattus norvegicus [4]; short-term, duration: 20 days, oral, drinking water, Bone: Rachitic changes",190 mg/kg-day
N#CSCSc1nc2ccccc2s1 [2-(Thiocyanomethylthio)benzothiazole],NOEL,"Rattus norvegicus [4]; subchronic, oral, diet, Stomach: Lesions",25 mg/kg-day
N#CCC#N [Propanedinitrile],NOAEL,"Rattus norvegicus [3]; subchronic, duration: 90 days, gavage, Crl:CD(SD) BR, hepatic",0.4 mg/kg-day
C=CC1(C)OC(=O)N(c2cc(Cl)cc(Cl)c2)C1=O (stereo not given) [Vinclozolin],NOEL,"Rattus norvegicus [7]; subchronic, M/F, Sprague-Dawley, Body Weight Changes: decrease + Blood Chemistry: BUN increase, Cho increase, Glu increase, TSH increase, T4 decrease, , LH increase, , …",< 3.12 mg/kg-day
same,LEL,Canidae,7.5 mg/kg-day
same,NOEL,Canidae,2.5 mg/kg-day
same,NOEL,"Rattus norvegicus [8]; Hershberger, duration: 7 days, injection, subcutaneous, Neither + significant delay in PPS and AST / epididymal wt reduced at 30 mg/kg / serum LH decreased at 10 mg/kg / increase in …",30 mg/kg-day
same,NOEL,"Rattus norvegicus [8]; Hershberger, duration: 10 days, oral, gavage, active + Antiandrogenic + anti-androgenic + ISR significant delay in PPS at 10 mg/kg / Monossori et al. significant delay in PPS and AST…",30 mg/kg-day and 10 mg/kg-day
same,LOEL,"Rattus norvegicus [8]; Hershberger, duration: 10 days, oral, gavage, wistar, active + Antiandrogenic + anti-androgenic + ISR significant delay in PPS at 10 mg/kg / Monossori et al. significant delay in PPS and AST…",10 mg/kg-day and 30 mg/kg-day
"C1=CCC=C1 [1,3-Cyclopentadiene]",NOEL,"Rattus norvegicus [4]; chronic, duration: 194 days, inhalation, intermittent, Kidney: Lesions + Liver: Lesions",87.3 mg/kg-day
CNc1ccccc1 [N-Methylaniline],NOAEL,"Rattus norvegicus [3]; short-term, duration: 28 days, gavage, CD, Hematologic, Immune",5 mg/kg-day
CCCN(CC1CC1)c1c([N+](=O)[O-])cc(C(F)(F)F)cc1[N+](=O)[O-] [Profluralin],NOEL,"Rattus norvegicus [4]; subchronic, oral, diet, None Observed",3 mg/kg-day
Cc1cc(C(C#N)c2ccc(Cl)cc2)c(Cl)cc1NC(=O)c1cc(I)cc(I)c1O (stereo not given) [Closantel],NOEL,"Rattus norvegicus [9]; chronic, diet",2.5 mg/kg-day
same,NOEL,"Rattus norvegicus [9]; dietary / carcinogenicity, feed",2.5 mg/kg-day
CC(C)N(C(=O)CCl)c1ccccc1 [Propachlor],LEL,Rattus norvegicus [5]; [12],133 mg/kg-day
same,NOEL,Rattus norvegicus [5]; [12],13.3 mg/kg-day
same,NOEL,"Rattus norvegicus [4]; subchronic, duration: 90 days, oral, diet, Whole body: Decreased weight gain",13.3 mg/kg-day
"Brc1ccc(Br)c(Br)c1 [1,2,4-Tribromobenzene]",LOAEL,Rattus norvegicus [5]; [13],10 mg/kg-day
same,NOAEL,Rattus norvegicus [5]; [13],5 mg/kg-day
same,NOAEL,"Rattus norvegicus [4]; subchronic, duration: 45 days, oral, diet, Liver: Altered weight + Liver: Enzyme induction",5 mg/kg-day
Oc1cc(Cl)ccc1Oc1ccc(Cl)cc1Cl [Triclosan],LEL,"Rattus norvegicus [8]; duration: 3 days, oral",4.69 mg/kg-day and 7.5 mg/kg-day
same,LEL,"Rattus norvegicus [8]; duration: 20 days, oral",150 mg/kg-day
same,NOEL,"Rattus norvegicus [4]; short-term, duration: 4 weeks, oral, Whole body: Decreased weight",500 mg/kg-day
CCCCCC [n-Hexane],LOAEL,"Rattus norvegicus [3]; subchronic, duration: 8 weeks, gavage, Wistar, Nervous",785 mg/kg-day
"ClCC(Cl)CCl [1,2,3-Trichloropropane]",NOEL,"Rattus norvegicus [7]; chronic, duration: 17 weeks, M/F, Fischer 344, Deaths + Body Weight Changes: decrease + Hematology: Hct decrease, RBC decrease, Hgb decrease + Blood Chemistry: Na decrease, Alb increase, …",< 8 mg/kg-day
same,NOAEL,Rattus norvegicus [7]; [14],< 15 mg/kg-day
same,NOEL,Rattus norvegicus [7]; [14],< 15 mg/kg-day
same,NOAEL,"Rattus norvegicus [6]; duration: 11 days, inhalation, M/F, Fischer 344, respiratory",6.03 mg/m3
same,NOAEL,"Rattus norvegicus [4]; chronic, duration: 120 days, oral, Blood: Decreased hematocrit + Blood: Decreased hemoglobin + Erythrocytes: Decreased count + Kidney: Lesions + Liver: Lesions + Whole body: …",8 mg/kg-day
[PH]=[Zn].[PH]=[Zn].[Zn] [Zinc phosphide (Zn3P2)],LOAEL,"Rattus norvegicus [5]; subchronic, F, reduced food intake and body weight",3.48 mg/kg-day
same,LOAEL,"Rattus norvegicus [4]; subchronic, duration: 13 weeks, oral, diet, Whole body: Decreased food intake + Whole body: Decreased weight",3.48 mg/kg-day
